The results in this text go back to US8088752B2, “Methods for metabolic modulation” (VDF FutureCeuticals, Inc., priority 2003, dated 2012).

In data set [1] the test system is activated Akt. As to the kind of experiment: Level of activated Akt in muscle cells, Western immunoblotting. It counts as cell-based, mouse. The conditions noted are these: for FOLD AKT ACTIVATION (OVER CONTROL): 30 minutes; for Akt activity (in words): summary of Table 2. How it is done:
(§1) In Vitro Effect of Selected Compounds on Glut-4, activated AMPK, and activated Akt The levels of Glut-4, activated AMPK and activated Akt were measured in mouse muscle cells C2C12 (from ATTC) and in primary culture of human skeletal muscle cells (Clonetics, Inc.) using Western immunoblotting. C2C12 cells were plated at […] cells per mL/well (12-well plate) in standard cell culture medium (DMEM supplemented with 10% fetal bovine serum (FBS), 25 mM glucose, 20 mM Hepes, 4 mM glutamine and 2 mM sodium pyruvate. 48 hrs after the plating, medium was changed to differentiation medium (DMEM supplemented with 5 mM of glucose and 0.5% of FBS) for next 3-4 days to stimulate the formation of myotubes. Three hrs before the treatment with selected agents, cells were washed with PBS and transferred to PBS supplemented with 5 mM of glucose.
(§2) Human skeletal muscle cells (HSKM) were cultured in SKBM-2 mediums provided by Clonetics. 48 hrs after cell plating, medium was changed to SKBM medium to stimulate differentiation of the cells to myotubes. When differentiated, the myotubes were transferred to PBS supplemented with 5 mM glucose for three hrs before the treatment.
(§3) Analysis of C2C12 cells for the level of activated AMPK, Akt and the level of GLUT-4 was performed in the same experimental system. The cells were treated for 30 minutes at 37° C. […] Subsequently, 20 μg per sample of sample protein was used for Western analysis using NuPage 10% Bis/Tris gels (Invitrogen). After exposure of membranes to primary and secondary antibodies AMPK, AKT or Glut-4 was detected using ECL-Plus (Amersham) following producer's instruction. Chemilumiscent signals were detected by using ChemiDoc system from Biorad. Intensity of detected signals were analyzed and measured using Quantity One software (Biorad). Alternatively, the level of phosphorylated AMPK was detected using ECL kit from Amersham and short exposure to Kodak films.
(§4) Experimental setup: Cell Culture was followed by treatment with selected contemplated compounds, which was followed by cell lysis and western blot analysis for AMPK, Akt, GLUT4, total AMPK, and total Akt. Signals were acquired accordingly.

Data set [2] relates to activated AMPK. As to the kind of experiment: Level of activated AMPK in muscle cells, Western immunoblotting. Type of data set: cell-based, mouse. The conditions noted are these: for AMPK activity (in words): summary of Table 1. The protocol:
as §1, §2, §3, §4

Data set [3] is described as follows: Serum level of DHZ in mice after oral or i.p. administration (ELISA). It counts as in vivo, mouse. The conditions noted are these: C57/B1 mice, 100 microgram/dose. How it is done: C57/B1 mice were treated with 100 microgram/dose of dihydrozeatin (DHZ) for 0, 15, 30, 60 and 120 minutes following oral or i.p. administration. Serum level of DHZ in pg/ml was measured using DHZ Elisa following procedures as enclosed in a commercially available test kit (e.g., dihydrozeatin competitive ELISA test system for plant growth hormone detection, Agdia, Elkhard, Ind.). Three animals were used per experimental point.

Data set [4] relates to muscle cells. The experiment in a line: In vitro myocyte total glucose uptake, fluorescent glucose analog. It counts as cell-based. The conditions noted are these: summary of Table 4. How it is done: Total glucose uptake was measured using fluorescent glucose analog from Molecular Probes. Briefly, muscle cells were treated with kinetin, N^2-Acetyl-Guanosine and N^2-Acetyl-Guanine for 30 minutes at 37 C first and subsequently, these cells were exposed to 500 μM of fluorescent glucose analog for 5 minutes at room temperature. Next, cells were washed twice with cold Krebs-Hepes buffered solution and fixed in 70% ethanol in water. Fluorescence of fluorescent glucose in the cells was measured using fluorescent plate reader at 480/530 nm (excitation/emission). […] Table 4 refers to multiple independent experiments where multiple identical concentrations for the same reagents are indicated.

In data set [5] the test system is GLUT-4. The experiment in a line: GLUT-4 protein level in C2C12 cells, Western immunoblotting. Type of data set: cell-based, mouse. The conditions noted are these: summary of Table 3. The protocol:
as §1
Analysis of C2C12 cells for the level of activated AMPK, Akt and the level of GLUT-4 was performed in the same experimental system. The cells were treated for 30 minutes at 37° C. […] After exposure of membranes to primary and secondary antibodies AMPK, AKT or Glut-4 was detected using ECL-Plus (Amersham) following producer's instruction. Chemilumiscent signals were detected by using ChemiDoc system from Biorad. Intensity of detected signals were analyzed and measured using Quantity One software (Biorad). Alternatively, the level of phosphorylated AMPK was detected using ECL kit from Amersham and short exposure to Kodak films. […]

“Also recorded” adds a separate entry of the source.

As for `C/C(=C\CNc1ncnc2nc[nH]c12)CO` [Trans-Zeatin], the “FOLD AKT ACTIVATION (OVER CONTROL)” value amounted to 0.90 fold in data set [1] (1.0 microM) and 0.86 fold in data set [1] (10.0 microM).

On to `c1ccc(CNc2ncnc3nc[nH]c23)cc1` [Benzyl-Adenine], for which the “FOLD AMPK ACTIVATION (OVER CONTROL)” value in data set [2] (5.0 microM, 30 minutes) amounted to 2.70 fold.

For the compound “Insulin: Insulin, comparator in the Akt activation test”, the “FOLD AKT ACTIVATION (OVER CONTROL)” value in data set [1] (0.10 nanoM) was determined as 1.75 fold; in data set [1] (25.0 nanoM), 3.40 fold; in data set [1] (50.0 nanoM) it was 3.28 fold.

Regarding `C/C(=C\CNc1ncnc2[nH]cnc12)CO` [Zeatin], the “AMPK activity (in words)” value in data set [2] is recorded as “more potent compounds; also recorded: potent stimulator of AMPK”. Besides, the “FOLD AKT ACTIVATION (OVER CONTROL)” value in data set [1] (1.0 microM) is 0.95 fold. The “Akt activity (in words)” value in data set [1] was “not Akt”.

`CC(CO)CCNc1ncnc2nc[nH]c12` (stereo not drawn) [Dihydro-Zeatin, dihydrozeatin]: the “time over which significant serum concentrations can be maintained” value in data set [3] was “at least 120 minutes”. For the same compound, the “oral bioavailability (in words)” value in data set [3] (oral) is “readily bioavailable from the oral route”.

Consider `CC(C)=CCNc1ncnc2nc[nH]c12` [Gamma, Gamma-Dimethylally-6-Aminopurine], for which the “FOLD AKT ACTIVATION (OVER CONTROL)” value in data set [1] (0.8 microM) is reported as 1.90 fold.

As for `Nc1nc2c(ncn2[C@@H]2O[C@H](CO)[C@@H](O)[C@H]2O)c(=O)[nH]1` [Guanosine], the “AMPK activity (in words)” value in data set [2] is “potent activators of AMPK as well as Akt”. Besides, in data set [1], the “Akt activity (in words)” value is listed as “potent activators of AMPK as well as Akt”.

As to `CN(C)C(=N)N=C(N)N` [Metformin, reference compound], the “FOLD AKT ACTIVATION (OVER CONTROL)” value in data set [1] (20.0 milliM) was determined as 2.32 fold.

As for `c1coc(CNc2ncnc3[nH]cnc23)c1` [Kinetin, kinetin], the “AMPK activity (in words)” value in data set [2] is listed as “more potent compounds”. Further, in data set [4], the “glucose uptake in muscle cells in vitro (in words)” value (shortened to “glucose uptake in muscle cells”) is “potently enhance glucose uptake”. Also, the “GLUT-4 protein level (in words)” value in data set [5] is “potently increase GLUT-4 protein level”.

Turning to `CC(=O)Nc1nc2nc[nH]c2c(=O)[nH]1` [N^2-Acetyl-Guanine, N2-acetylguanine], the “AMPK activity (in words)” value in data set [2] is given as “potent activators of AMPK as well as Akt”. Moreover, the “Akt activity (in words)” value in data set [1] is “potent activators of AMPK as well as Akt”. Also, the “glucose uptake in muscle cells” value in data set [4] is “potently enhance glucose uptake”. In addition, in data set [5], the “GLUT-4 protein level (in words)” value is given as “potently increase GLUT-4 protein level”.

Regarding `NC(=O)c1ncn([C@@H]2O[C@H](CO)[C@@H](O)[C@H]2O)c1N` [AICAR, 4-Amino-5-imidazolecarboxamide riboside, reference compound], the “FOLD AKT ACTIVATION (OVER CONTROL)” value in data set [1] (50.0 microM) came out at 2.20 fold.

Consider `CC(=O)Nc1nc2c(ncn2[C@@H]2O[C@H](CO)[C@@H](O)[C@H]2O)c(=O)[nH]1` [N^2-Acetyl-Guanosine], for which, in data set [2], the “AMPK activity (in words)” value was “potent activators of AMPK as well as Akt”. Moreover, in data set [1], the “Akt activity (in words)” value is “potent activators of AMPK as well as Akt”. Further, in data set [4], the “glucose uptake in muscle cells” value is “potently enhance glucose uptake”. For the same compound, the “GLUT-4 protein level (in words)” value in data set [5] is reported as “potently increase GLUT-4 protein level”.
